Measurements reported in patent US20240239775A1, “FXR REGULATOR, PREPARATION METHOD THEREFOR, PHARMACEUTICAL COMPOSITION THEREOF AND USE THEREOF” (QINGDAO RUIJI MEDICAL TECHNOLOGY CO., LTD., priority 2021, published 2024).

Biological target: T1, FXR (Homo sapiens, UniProt Q96RI1)
T1 construct: 5 μL of 20 nM FXR-LBD Complete Coregulator buffer G; purchased ThermoFisher PV4833
T1 sequence (Q96RI1 262-486 limits assumed): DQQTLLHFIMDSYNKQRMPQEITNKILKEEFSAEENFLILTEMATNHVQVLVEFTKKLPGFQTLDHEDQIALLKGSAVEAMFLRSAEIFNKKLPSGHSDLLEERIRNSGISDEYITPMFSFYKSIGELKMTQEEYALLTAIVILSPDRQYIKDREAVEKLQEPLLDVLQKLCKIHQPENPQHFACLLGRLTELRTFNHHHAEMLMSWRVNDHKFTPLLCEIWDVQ
Experiment: FXR antagonist screening by TR-FRET (LanthaScreen TR-FRET FXR co-activation assay kit)
Type: biochemical
Settings: Table 1.1, FXR antagonistic activity; TR-FRET with CDCA; geometric means of at least two independent runs
Procedure: FXR activity was evaluated by time-resolved fluorescence resonance energy transfer (TR-FRET) assay, using LanthaScreen™ TR-FRET FXR co-activation assay kit (ThermoFisher, Cat. PV4833). For agonist screening, 10 μL of Complete Coregulator buffer G containing the corresponding concentration of the compound to be tested, 5 μL of 20 nM FXR-LBD Complete Coregulator buffer G, and 5 μL of 2.0 μM Fluorescein-SRC2-2/20 nM Tb-anti-GST antibody Complete Coregulator buffer G were added to each well of a 384-well black plate (Coring) in sequence. […] Three duplicate wells were set up for each compound, with CDCA as the positive compound and DMSO as the solvent control. For antagonist screening, 5 μL of Complete Coregulator buffer G containing the corresponding concentration of the compound to be tested, 5 μL of 20 nM FXR-LBD Complete Coregulator buffer G, 5 μL of 200 μM CDCA FXR-LBD Complete Coregulator buffer G, and 5 μL of 2.0 μM Fluorescein-SRC2-2/20 nM Tb-anti-GST antibody Complete Coregulator buffer G were added to each well of a 384-well black plate (Coring) in sequence and incubated at room temperature for 10 h. Following operations were the same as those for agonist screening

Q: With CCOC(=O)c1oc2ccc(S(=O)(=O)N(CCc3ccccc3)Cc3ccccc3)cc2c1C [Example F27-S8, ethyl 5-(N-benzyl-N-phenethylsulfamoyl)-3-methylbenzofuran-2-carboxylate] as the compound, how does the IC50 read?
A: 50 to 100 µM

Q: Cc1c(C(=O)O)oc2ccc(S(=O)(=O)N(CCc3ccccc3)c3ccccc3)cc12 [Example F27-S10, 3-methyl-5-(N-phenethyl-N-phenylsulfamoyl)benzofuran-2-carboxylic acid] was tested. Which IC50 did it give?
A: 50 to 100 µM

Q: How did the IC50 turn out when Cc1c(C(=O)O)oc2ccc(S(=O)(=O)N(CCc3ccccc3)CCc3ccccc3)cc12 [Example F27-S13, 3-methyl-5-(N,N-diphenylethylsulfamoyl)benzofuran-2-carboxylic acid] was run?
A: 10 to 50 µM

Q: Cc1c(C(=O)O)oc2ccc(S(=O)(=O)N(CCc3ccccc3)Cc3ccc(Br)cc3)cc12 [Example F27-S30, 3-methyl-5-(N-(4-bromobenzyl)-N-phenethylsulfamoyl)benzofuran-2-carboxylic acid] was tested. Which IC50 did it give?
A: 10 to 50 µM

Q: With Cc1c(C(=O)O)oc2ccc(S(=O)(=O)N(CCc3ccccc3)Cc3ccc(C(=O)OC(C)(C)C)cc3)cc12 [Example F27-S40, 3-methyl-5-(N-(4-(tert-butoxycarbonyl)benzyl)-N-phenethylsulfamoyl)benzofuran-2-carboxylic acid] as the compound, how does the IC50 read?
A: 10 to 50 µM

Q: Which IC50 does the source give for Cc1c(C(=O)O)oc2ccc(S(=O)(=O)N(CCc3ccccc3)Cc3cccc4cccnc34)cc12 [Example F27-S44, 3-methyl-5-(N-(quinolin-8-ylmethyl)-N-phenethylsulfamoyl)benzofuran-2-carboxylic acid] here?
A: 10 to 50 µM

Q: Which IC50 does the source give for Cc1c(C(=O)O)oc2ccc(S(=O)(=O)N(CCc3ccccc3)c3ccc(N4CCN(S(C)(=O)=O)CC4)cc3)cc12 [Example F27-S72, 3-methyl-5-(N-(4-(4-(methylsulfonyl)piperazin-1-yl)phenyl)-N-phenethylsulfamoyl)benzofuran-2-carboxylic acid] here?
A: 50 to 100 µM

Q: Which IC50 does the source give for Cc1c(C(=O)O)oc2ccc(S(=O)(=O)N(CCc3ccccc3)Cc3ccc(N4CCN(C)CC4)cc3)cc12 [Example F27-S80, 3-methyl-5-(N-(4-(4-methylpiperazin-1-yl)benzyl)-N-phenethylsulfamoyl)benzofuran-2-carboxylic acid] here?
A: 50 to 100 µM

Q: For Cc1c(C(=O)O)oc2ccc(S(=O)(=O)N(CCc3ccccc3)Cc3ccc(N4CCN(C(=O)OC(C)(C)C)CC4)cc3)cc12 [Example F27-S81, 3-methyl-5-(N-(4-(4-(tert-butoxycarbonyl)piperazin-1-yl)benzyl)-N-phenethylsulfamoyl)benzofuran-2-carboxylic acid], which IC50 is on record?
A: 10 to 50 µM

Q: How did the IC50 turn out when Cc1c(C(=O)O)oc2ccc(S(=O)(=O)N(CCc3ccccc3)Cc3ccc(Oc4ccccc4)cc3)cc12 [Example F27-S86] was run?
A: 10 to 50 µM

Q: Cc1c(C(=O)O)oc2ccc(S(=O)(=O)N(CCc3ccccc3)Cc3ccccc3N3CCN(C(=O)OC(C)(C)C)CC3)cc12 [Example F27-S87, 3-methyl-5-(N-(2-(4-(tert-butoxycarbonyl)piperazin-1-yl)benzyl)-N-phenethylsulfamoyl)benzofuran-2-carboxylic acid] was tested. Which IC50 did it give?
A: 0.1 to 10 µM

Same assay, conditions: Table 1.2, FXR antagonistic activity; TR-FRET with CDCA; geometric means of at least two independent runs

Q: Cc1ccc(C(=O)N2CCN(c3ccccc3N(CCc3ccccc3)S(=O)(=O)c3ccc4oc(C(=O)O)c(C)c4c3)CC2)cc1 [Example F27-S106, 3-methyl-5-(N-(2-(4-(4-methylbenzoyl)piperazin-1-yl)phenyl)-N-phenethylsulfamoyl)benzofuran-2-carboxylic acid] was tested. Which IC50 did it give?
A: 0.1 to 10 µM

Q: For Cc1ccccc1C(=O)N1CCN(c2ccccc2N(CCc2ccccc2)S(=O)(=O)c2ccc3oc(C(=O)O)c(C)c3c2)CC1 [Example F27-S107, 3-methyl-5-(N-(2-(4-(2-methylbenzoyl)piperazin-1-yl)phenyl)-N-phenethylsulfamoyl)benzofuran-2-carboxylic acid], which IC50 is on record?
A: 0.1 to 10 µM

Q: For Cc1cccc(C(=O)N2CCN(c3ccccc3N(CCc3ccccc3)S(=O)(=O)c3ccc4oc(C(=O)O)c(C)c4c3)CC2)c1 [Example F27-S108, 3-methyl-5-(N-(2-(4-(3-methylbenzoyl)piperazin-1-yl)phenyl)-N-phenethylsulfamoyl)benzofuran-2-carboxylic acid], which IC50 is on record?
A: 0.1 to 10 µM

Q: CC(=O)Nc1ccc(C(=O)N2CCN(c3ccccc3N(CCc3ccccc3)S(=O)(=O)c3ccc4oc(C(=O)O)c(C)c4c3)CC2)cc1 [Example F27-S109, 5-(N-(2-(4-(4-acetamidobenzoyl)piperazin-1-yl)phenyl)-N-phenethylsulfamoyl)-3-methylbenzofuran-2-carboxylic acid] was tested. Which IC50 did it give?
A: 0.1 to 10 µM

Q: Which IC50 does the source give for Cc1c(C(=O)O)oc2ccc(S(=O)(=O)N(CCc3ccccc3)c3ccccc3N3CCN(C(=O)c4ccc(C(F)(F)F)cc4)CC3)cc12 [Example F27-S110, 3-methyl-5-(N-phenethyl-N-(2-(4-(4-(trifluoromethyl)benzoyl)piperazin-1-yl)phenyl)sulfamoyl)benzofuran-2-carboxylic acid] here?
A: 0.1 to 10 µM

Q: Cc1c(C(=O)O)oc2ccc(S(=O)(=O)N(CCc3ccccc3)c3ccccc3N3CCN(C(=O)c4ccc(F)cc4)CC3)cc12 [Example F27-S112, 5-(N-(2-(4-(4-fluorobenzoyl)piperazin-1-yl)phenyl)-N-phenethylsulfamoyl)-3-methylbenzofuran-2-carboxylic acid] was tested. Which IC50 did it give?
A: 0.1 to 10 µM

Q: For Cc1c(C(=O)O)oc2ccc(S(=O)(=O)N(CCc3ccccc3)c3ccccc3N3CCN(C(=O)c4ccc(NC(=O)OC(C)(C)C)cc4)CC3)cc12 [Example F27-S113], which IC50 is on record?
A: 0.1 to 10 µM

Q: With Cc1c(C(=O)O)oc2ccc(S(=O)(=O)N(CCc3ccccc3)c3ccccc3N3CCN(C(=O)c4ccc([N+](=O)[O-])cc4)CC3)cc12 [Example F27-S114, 3-methyl-5-(N-(2-(4-(4-nitrobenzoyl)piperazin-1-yl)phenyl)-N-phenethylsulfamoyl)benzofuran-2-carboxylic acid] as the compound, how does the IC50 read?
A: 0.1 to 10 µM

Q: How did the IC50 turn out when CC(=O)c1ccc(C(=O)N2CCN(c3ccccc3N(CCc3ccccc3)S(=O)(=O)c3ccc4oc(C(=O)O)c(C)c4c3)CC2)cc1 [Example F27-S115, 5-(N-(2-(4-(4-acetylbenzoyl)piperazin-1-yl)phenyl)-N-phenethylsulfamoyl)-3-methylbenzofuran-2-carboxylic acid] was run?
A: 0.1 to 10 µM

Q: With Cc1c(C(=O)O)oc2ccc(S(=O)(=O)N(CCc3ccccc3)c3ccccc3N3CCN(C(=O)c4cccnc4)CC3)cc12 [Example F27-S116, 3-methyl-5-(N-(2-(4-nicotinoylpiperazin-1-yl)phenyl)-N-phenethylsulfamoyl)benzofuran-2-carboxylic acid] as the compound, how does the IC50 read?
A: 0.1 to 10 µM

Q: For Cc1c(C(=O)O)oc2ccc(S(=O)(=O)N(CCc3ccccc3)c3ccccc3N3CCN(C(=O)c4ccccn4)CC3)cc12 [Example F27-S117, 3-methyl-5-(N-phenethyl-N-(2-(4-pyridinecarbonylpiperazin-1-yl)phenyl)sulfamoyl)benzofuran-2-carboxylic acid], which IC50 is on record?
A: 0.1 to 10 µM

Q: How did the IC50 turn out when Cc1c(C(=O)O)oc2ccc(S(=O)(=O)N(CCc3ccccc3)c3ccccc3N3CCN(C(=O)c4cccs4)CC3)cc12 [Example F27-S118, 3-methyl-5-(N-phenethyl-N-(2-(4-(thiophene-2-carbonyl)piperazin-1-yl)phenyl)sulfamoyl)benzofuran-2-carboxylic acid] was run?
A: 0.1 to 10 µM

Q: Cc1c(C(=O)O)oc2ccc(S(=O)(=O)N(CCc3ccccc3)c3ccccc3N3CCN(C(=O)c4ccsc4)CC3)cc12 [Example F27-S119, 3-methyl-5-(N-phenethyl-N-(2-(4-(thiophene-3-carbonyl)piperazin-1-yl)phenyl)sulfamoyl)benzofuran-2-carboxylic acid] was tested. Which IC50 did it give?
A: 0.1 to 10 µM

Q: With C/C=C/C(=O)N1CCN(c2ccccc2N(CCc2ccccc2)S(=O)(=O)c2ccc3oc(C(=O)O)c(C)c3c2)CC1 [Example F27-S120, (E)-5-(N-(2-(4-(but-2-enoyl)piperazin-1-yl)phenyl)-N-phenethylsulfamoyl)-3-methylbenzofuran-2-carboxylic acid] as the compound, how does the IC50 read?
A: 0.1 to 10 µM

Q: Cc1c(C(=O)O)oc2ccc(S(=O)(=O)N(CCc3ccccc3)c3ccccc3N3CCN(C(=O)c4ccco4)CC3)cc12 [Example F27-S121, 5-(N-(2-(4-(furan-2-carbonyl)piperazin-1-yl)phenyl)-N-phenethylsulfamoyl)-3-methylbenzofuran-2-carboxylic acid] was tested. Which IC50 did it give?
A: 0.1 to 10 µM

Q: Which IC50 does the source give for Cc1c(C(=O)O)oc2ccc(S(=O)(=O)N(CCc3ccccc3)c3ccccc3N3CCN(C(=O)C4CCCC4)CC3)cc12 [Example F27-S122, 5-(N-(2-(4-(cyclopentanecarbonyl)piperazin-1-yl)phenyl)-N-phenethylsulfamoyl)-3-methylbenzofuran-2-carboxylic acid] here?
A: 0.1 to 10 µM

Q: Cc1c(C(=O)O)oc2ccc(S(=O)(=O)N(CCc3ccccc3)c3ccccc3N3CCN(C(=O)c4ccc(Br)s4)CC3)cc12 [Example F27-S123, 5-(N-(2-(4-(5-bromothiophene-2-carbonyl)piperazin-1-yl)phenyl)-N-phenethylsulfamoyl)-3-methyl benzofuran-2-carboxylic acid] was tested. Which IC50 did it give?
A: 0.1 to 10 µM
